# Values quoted from earlier work in patent publication US20100047365A1, “WHEAT-GERM OIL CONCENTRATE, A METHOD FOR THE PRODUCTION THEREOF, A METHOD FOR PRODUCING WHEAT-GERM OIL, AND A MEDICINAL AND PROPHYLACTIC COMPOSITION BASED THEREON FOR RESTORATION OF DISORDERS IN SEXUAL FUNCTIONS” (OTKRYTOE AKTSIONERNOE, priority 2006, published 2010).
# Conditions: relative ranking of tocopherol forms
row,Compound,antioxidant activity
1,Cc1c(C)c2c(c(C)c1O)CC[C@@](C)(CCC[C@H](C)CCC[C@H](C)CCCC(C)C)O2 [α-tocopherol],0.3
2,Cc1cc(O)c(C)c2c1O[C@](C)(CCC[C@H](C)CCC[C@H](C)CCCC(C)C)CC2 [β-tocopherol],0.45
3,Cc1cc(O)cc2c1O[C@](C)(CCC[C@H](C)CCC[C@H](C)CCCC(C)C)CC2 [δ-tocopherol],1.0
4,tocopherol,0.6
